This passage reports IC50 results from patent US20260042764A1, “COMPOSITIONS AND METHODS FOR INHIBITION OF KRAS” (TheRas, Inc., priority 2022, published 2026).

SMILES strings stand for the structures. pIC50: −log10 of the molar value.

One assay concerns AsPC-1 cells (KRAS G12D). As to the kind of experiment: Cell-based pERK HTRF assay in AsPC-1 cells (Biological Example 5). As for the experimental part: (§1) Biological Example 5: Cell-based PERK HTRF assay in AsPC-1, SW1900, HPAC, Capan-2, RKN, H358, HCT116, KP-2, H1573, A549, MKN1, and HT1080 cells
(§2) The inhibition of ERK phosphorylation, as measured using the HTRF Advanced Phospho-ERK 1/2 (Thr202/Tyr204) Detection Assay kit (Perkin Elmer), was used to determine the effectiveness of test compounds in disrupting KRAS-driven protein/effector signaling in cells.
(§3) On day 1, cells were seeded into 96-well plates at 2.5×10^4 cells/well in 100 μL of complete growth media supplemented with 10% fetal bovine serum (FBS) and incubated at 37° C., in the presence of 5% CO2.
(§4) On day 2, cells were treated with compounds diluted in DMSO at 0.25% final DMSO concentration. Compounds were dosed in a 9-point concentration curve with three-fold dilution between concentrations. Cells were incubated in the presence of compound for two hours at 37° C. Following this treatment period, cells were harvested by aspirating the media, adding 40 μL of kit-supplied 1x lysis buffer per well, and shaking for 30 minutes at 250 rpm at room temperature.
(§5) Following cell lysis, samples were homogenized by pipetting up and down twenty times and 16 μL of cell lysate per well was transferred from the 96-well cell culture plate to two wells of a 384-well detection plate. A complete detection buffer was prepared by diluting D2 and Eu Cryptate antibodies 1:20 in kit-provided detection solution, 4 μL of complete detection buffer was then added to each well with lysate. Plates were incubated with gentle rocking for 24 hours at 4° C.
(§6) Following this incubation period, plates were centrifuged at 500×g for one minute and analyzed on a CLARIOstar plate reader. Data was imported into Microsoft Excel and the signal from the 665 nm channel was divided by the signal from the 620 nm channel. % pERK was calculated as: […]
(§7) Data was imported to the Prism software package (Graphpad) and EC50 values were calculated using the log (inhibitor) vs, response—variable slopc (Four parameters) model.

Assay [1] deals with RKN cells (KRAS G12V). As to the kind of experiment: Cell-based pERK HTRF assay in RKN cells (Biological Example 5). As for the experimental part:
as §1, §2, §3, §4, §5, §6, §7

The subject of another assay is A549 cells (KRAS G12S). The assay can be described thus: Cell-based pERK HTRF assay in A549 cells (Biological Example 5). Conditions: Homo sapiens. The method, then:
as §1, §2, §3, §4, §5, §6, §7

In assay [2] the test system is MKN1 cells (KRAS amplification). As to the kind of experiment: Cell-based pERK HTRF assay in MKN1 cells (Biological Example 5). The method, then: as §1, §2, §3, §4, §5, §6, §7
In assay [3] the test system is RKN cells (KRAS G12V). As to the kind of experiment: 3D Cell viability assay in RKN cells (Biological Example 6). It counts as cell-based. Conditions: RKN (KRAS G12V) spheroids, 72 hours. The method, then:
Biological Example 6: 3D Cell viability assay in AsPC-1, SW1900, HPAC, Capan-2, RKN, H358, HCT116, KP-2, H1573, A549, MKN1, and HT1080 cells
The inhibition of cellular viability as a result of test compound treatment in a spheroid assay was measured using the CellTiter-Glow 3D Cell Viability Assay (Promega).
On Day 1, 1000 cells per well were seeded in 150 μL of complete growth media supplemented with 10% fetal bovine serum (FBS) and incubated at 37° C., in the presence of 5% CO2 in 96-well ultra-low attachment microplates (Corning) for 48 hours undisturbed to allow spheroids to form.
Following spheroid formation, cells were treated with compounds diluted in DMSO at 0.25% final DMSO concentration. Compounds were dosed in a 9-point concentration curve with three-fold dilution between concentrations. Cells were incubated in the presence of compound for 72 hours at 37° C., in the presence of 5% CO2.
Following this incubation period, the kit-provided CTG reagent was allowed to equilibrate for 30 minutes at room temperature, 150 μL of equilibrated CTG reagent was added to each well, and the plate was sealed before shaking at 250 rpm for 10 minutes at room temperature to lyse the cells, 150 μL of lysate per well was transferred to a 96-well plate and luminescence was read on a CLARIOstar plate reader.
Data was imported into the Prism software package (Graphpad) and EC50 values were calculated using the log (inhibitor) vs, response—variable slope (Four parameters) model.

A further assay has as its system HT1080 cells (NRAS). As to the kind of experiment: 3D Cell viability assay in HT1080 cells (Biological Example 6). Conditions: Homo sapiens, HT-1080; HT1080 (NRAS) spheroids, 72 hours. It counts as cell-based. In a few lines:
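Spheroids formed from 1000 cells/well over 48 h in ultra-low-attachment plates, 10% FBS medium, 37 °C, 5% CO2. Then treated 72 h with a 9-point, three-fold compound series at 0.25% DMSO. Viability by CellTiter-Glo 3D luminescence, EC50 from four-parameter variable-slope fit.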

The mark [4] stands for this setting: Homo sapiens, ASPC1, AsPC-1 (KRAS G12D) cells.
[5] abbreviates: Homo sapiens, MKN-1, MKN cells (MKN1, KRAS amplification).

On to `N#Cc1c(N)sc2c(F)ccc(-c3c(C(F)(F)F)cc4c(N5CC6CC(C5)O6)nc(OC[C@@]56CCCN5C[C@H](F)C6)nc4c3F)c12` (single isomer, unassigned) [Compound 275], for which the pIC50 with AsPC-1 cells (KRAS G12D) (setting [4]) was 6.00 to 7.00; with RKN cells (KRAS G12V) [1] it was ≥ 7.00; in the assay on A549 cells (KRAS G12S), ≥ 7.00; in assay [2] (setting [5]), ≥ 7.00; in the assay on RKN cells (KRAS G12V) [3], ≥ 7.00; in the assay on HT1080 cells (NRAS) it was < 6.00.
Regarding `CCN(c1nc(OC[C@@]23CCCN2C[C@H](F)C3)nc2c(F)c(-c3ccc(F)c4sc(N)c(C#N)c34)c(C(F)(F)F)cc12)[C@H]1CCN(C(C)=O)C1` [Compound 262], the negative-log IC50 (pIC50) with AsPC-1 cells (KRAS G12D) (setting [4]) was 6.00 to 7.00; in the assay with RKN cells (KRAS G12V) [1] it was ≥ 7.00; in the assay on A549 cells (KRAS G12S), ≥ 7.00; in assay [2] (setting [5]), ≥ 7.00; with RKN cells (KRAS G12V) [3], ≥ 7.00; with HT1080 cells (NRAS), < 6.00.
On to `CCN(c1nc(OC[C@@]23CCCN2C[C@H](F)C3)nc2c(F)c(-c3ccc(F)c4sc(N)c(C#N)c34)c(C(F)(F)F)cc12)[C@@H]1CCN(C(C)=O)C1` [Compound 268], for which the pIC50 is 6.00 to 7.00 in the assay on AsPC-1 cells (KRAS G12D) (setting [4]); ≥ 7.00 with RKN cells (KRAS G12V) [1]; ≥ 7.00 with A549 cells (KRAS G12S); ≥ 7.00 in assay [2] (setting [5]); ≥ 7.00 in the assay on RKN cells (KRAS G12V) [3]; < 6.00 in the assay with HT1080 cells (NRAS).
Consider `CCN(c1nc(OC[C@@]23CCCN2C[C@H](F)C3)nc2c(F)c(-c3ccc(F)c4sc(N)c(C#N)c34)c(C(F)(F)F)cc12)[C@H]1CCN(C(=O)C(C)C)C1` [Compound 332], for which the pIC50 was ≥ 7.00 in the assay on AsPC-1 cells (KRAS G12D) (AsPC-1 (KRAS G12D) cells); ≥ 7.00 in the assay on RKN cells (KRAS G12V) [1]; ≥ 7.00 with A549 cells (KRAS G12S); ≥ 7.00 in assay [2] (MKN cells (MKN1, KRAS amplification)); ≥ 7.00 in the assay on RKN cells (KRAS G12V) [3]; < 6.00 in the assay on HT1080 cells (NRAS).
As for `N#Cc1cnn2c1CN(c1nc(OC[C@@]34CCCN3C[C@H](F)C4)nc3c(F)c(-c4ccc(F)c5sc(N)c(C#N)c45)c(C(F)(F)F)cc13)CC2` [Compound 392], the pIC50 is < 6.00 in the assay on AsPC-1 cells (KRAS G12D) (setting [4]); ≥ 7.00 with RKN cells (KRAS G12V) [1]; 6.00 to 7.00 in the assay on A549 cells (KRAS G12S); ≥ 7.00 in assay [2] (setting [5]); ≥ 7.00 in the assay with RKN cells (KRAS G12V) [3]; < 6.00 in the assay on HT1080 cells (NRAS).
As for `C[C@@H]1[C@H](N(C)c2nc(OC[C@@]34CCCN3C[C@H](F)C4)nc3c(F)c(-c4ccc(F)c5sc(N)c(C#N)c45)c(C(F)(F)F)cc23)CC(=O)N1C` [Compound 440], the pIC50 in the assay with AsPC-1 cells (KRAS G12D) (setting [4]) is < 6.00; in the assay on RKN cells (KRAS G12V) [1], 6.00 to 7.00; with A549 cells (KRAS G12S), 6.00 to 7.00; in assay [2] (setting [5]) it was ≥ 7.00; with RKN cells (KRAS G12V) [3], ≥ 7.00; in the assay on HT1080 cells (NRAS), < 6.00.
Consider `CCC(=O)N1C[C@@H](N(CC)c2nc(OC[C@@]34CCCN3C[C@H](F)C4)nc3c(F)c(-c4ccc(F)c5sc(N)c(C#N)c45)c(C(F)(F)F)cc23)C[C@H]1C` [Compound 442], for which the pIC50 in the assay on AsPC-1 cells (KRAS G12D) (setting [4]) is 6.00 to 7.00; in the assay with RKN cells (KRAS G12V) [1], ≥ 7.00; with A549 cells (KRAS G12S) it was 6.00 to 7.00; in assay [2] (setting [5]), ≥ 7.00; in the assay on RKN cells (KRAS G12V) [3], ≥ 7.00; in the assay with HT1080 cells (NRAS), < 6.00.
